We go through eleven molecules from patent US10688088B2 (priority 2015, dated 2020).

Read-outs that look alike come from different tables or passages of the source.

Type in all cases: cell-based, Mycobacterium tuberculosis
Test [1] relates to M tuberculosis T3609, resistant to ofloxacin (OFX) and streptomycin. Also noted: MIC 2: MIC of the substance tested in combination / MIC 1: MIC of the substance tested alone: unit not given beside the values. Particulars: for MIC 2: MIC of the substance tested in combination / MIC 1: MIC of the substance tested alone: strain T3609.
Test [2] relates to M. tuberculosis T113, resistant to isoniazid (INH), rifampicin (RIF), ethambutol (ETB) and ofloxacin (OFX). Also on record: MIC 2: MIC of the substance tested in combination / MIC 1: MIC of the substance tested alone: unit not given beside the values. Conditions: for MIC 2: MIC of the substance tested in combination / MIC 1: MIC of the substance tested alone: strain T113.
The subject of the next test is M. tuberculosis. Conditions: all the strains (H37Rv, T3609, T113).

With `OC(c1cc(C(F)(F)F)nc2c(C(F)(F)F)cccc12)C1CCCCN1` (stereo not drawn) [Mefloquine, mefloquine], the “MIC 2: MIC of the substance tested in combination” value (from here on “MIC 2: MIC of the substance tested”) was 3.12 in test [1] (combination MEF + CPX); 2.50 in test [1] (combination MEF + LVX); 0.31 in test [1] (combination MFL + GAT); 0.015 in test [1] (combination MFL + INH); 0.62 in test [1] (combination MFL + MOX); 2.5 in test [1] (combination MFL + OFX). Besides, the “MIC 2: MIC of the substance tested” value in test [1] (combination MFL + PYR) is on record as 0.62; in test [1] (combination MFL + SPR), 0.62; in test [2] (combination MEF + CPX), 0.31; in test [2] (combination MEF + LVX), 0.31; in test [2] (combination MFL + GAT), 0.15; in test [2] (combination MFL + INH), 3.12. Moreover, the “MIC 2: MIC of the substance tested” value is reported as 0.31 in test [2] (combination MFL + LYN); 0.31 in test [2] (combination MFL + MOX); 0.62 in test [2] (combination MFL + OFX); 0.62 in test [2] (combination MFL + PYR); 0.12 in test [2] (combination MFL + SPR). The MICcombination in test [1] (strain T3609, Tables 1B and 2A) came to 25 µg/mL; in test [2] (strain T113, Table 2B), 25 µg/mL. Also, in the test with M. tuberculosis, the “cross-resistance (MIC across strains)” value was “no cross-resistance”.
In the case of `NNC(=O)c1ccncc1` [INH, isoniazid], the “MIC 2: MIC of the substance tested” value in test [1] (combination MFL + INH) was determined as 0.015; in test [2] (combination MFL + INH), 3.12. Besides, the “MIC 1: MIC of the substance tested alone” value in test [1] was determined as 0.5; in test [2], 6.25.
As to `CC(=O)NC[C@H]1CN(c2ccc(N3CCOCC3)c(F)c2)C(=O)O1` [LYN, linezolid], the “MIC 2: MIC of the substance tested” value in test [2] (combination MFL + LYN) is recorded as 0.31. Also, the “MIC 1: MIC of the substance tested alone” value in test [2] came out at 0.50.
As for `COc1c(N2C[C@@H]3CCCN[C@@H]3C2)c(F)cc2c(=O)c(C(=O)O)cn(C3CC3)c12` [MOX, moxifloxacin], the “MIC 2: MIC of the substance tested” value was found to be 0.62 in test [1] (combination MFL + MOX) and 0.31 in test [2] (combination MFL + MOX). Moreover, the figures for the “MIC 1: MIC of the substance tested alone” value in test [1] and in test [2] were 1.25 and 0.25, respectively.
Take `NC(=O)c1cnccn1` [PYR, pyrazinamide]: the “MIC 1: MIC of the substance tested alone” value in test [1] and in test [2] was over 100 in each case.
As for `CC1COc2c(N3CCN(C)CC3)c(F)cc3c(=O)c(C(=O)O)cn1c23` (stereo not drawn) [OFX, ofloxacin], the figures for the “MIC 2: MIC of the substance tested” value in test [1] (combination MFL + OFX) and in test [2] (combination MFL + OFX) were 2.5 and 0.62, respectively. Further, the figures for the “MIC 1: MIC of the substance tested alone” value in test [1] and in test [2] were 5.0 and 1.25, respectively.
Consider `C[C@H]1COc2c(N3CCN(C)CC3)c(F)cc3c(=O)c(C(=O)O)cn1c23` [LVX, levofloxacin], for which the entries for the “MIC 2: MIC of the substance tested” value in test [1] (combination MEF + LVX) and in test [2] (combination MEF + LVX) were 2.50 and 0.31, respectively. The “MIC 1: MIC of the substance tested alone” value came out at 2.50 in test [1] and 0.62 in test [2].
Take `O=C(O)c1cn(C2CC2)c2cc(N3CCNCC3)c(F)cc2c1=O` [CPX, ciprofloxacin]: the figures for the “MIC 2: MIC of the substance tested” value in test [1] (combination MEF + CPX) and in test [2] (combination MEF + CPX) were 3.12 and 0.31, respectively. Also, the “MIC 1: MIC of the substance tested alone” value in test [1] is on record as 5.00; in test [2] it was 0.62.
For the molecule `COc1c(N2CCNC(C)C2)c(F)cc2c(=O)c(C(=O)O)cn(C3CC3)c12` (stereo not drawn) [GAT, gatifloxacin], the “MIC 2: MIC of the substance tested” value in test [1] (combination MFL + GAT) worked out at 0.31; in test [2] (combination MFL + GAT) it was 0.15. Further, the “MIC 1: MIC of the substance tested alone” value in test [1] is on record as 0.62; in test [2], 0.12.
In the case of `C[C@@H]1CN(c2c(F)c(N)c3c(=O)c(C(=O)O)cn(C4CC4)c3c2F)C[C@H](C)N1` [SPR, sparfloxacin], the figures for the “MIC 2: MIC of the substance tested” value in test [1] (combination MFL + SPR) and in test [2] (combination MFL + SPR) were 0.62 and 0.12, respectively. Moreover, the “MIC 1: MIC of the substance tested alone” value in test [1] came to 1.25; in test [2], 0.12.
With `CC[C@@H](CO)NCCN[C@@H](CC)CO` [ETB, ethambutol], the “MIC 2: MIC of the substance tested” value in test [2] (combination MFL + ETB) turned out to be 12.5. Moreover, in test [2], the “MIC 1: MIC of the substance tested alone” value was 25.0.
